pKi: −log10 of the molar value.

What is called pKi is the negative decadic logarithm of the Ki, by convention in mol/L. The low end stands for a high Ki, the high end for a low Ki. The melting point is the temperature of the solid-liquid transition.

One series concerns the target T1, human D2 receptor (Homo sapiens, UniProt P14416).
T1 construct: expressed in transfected cells; host or cells: HEK293 EBNA cells, transient transfection; membrane preparation
Description: Radioligand binding to cloned human D2 receptor expressed in HEK-293 EBNA cells ([3H]-spiperone). The settings on record: HEK293 EBNA cell membranes, approximately 0.7 nM [3H]-spiperone, 1 h at RT.

Another series has as its target human D3 receptor (Homo sapiens, UniProt P35462). Briefly: Radioligand binding to cloned human D3 receptor expressed in HEK-293 EBNA cells ([3H]-spiperone).
For a further series, the target named is human 5-HT2A receptor (Homo sapiens, UniProt P28223). Briefly: Radioligand binding to cloned human 5-HT2A receptor expressed in HEK-293 EBNA cells ([3H]-ketanserin).
Sequence of human 5-HT2A receptor (P28223 whole entry): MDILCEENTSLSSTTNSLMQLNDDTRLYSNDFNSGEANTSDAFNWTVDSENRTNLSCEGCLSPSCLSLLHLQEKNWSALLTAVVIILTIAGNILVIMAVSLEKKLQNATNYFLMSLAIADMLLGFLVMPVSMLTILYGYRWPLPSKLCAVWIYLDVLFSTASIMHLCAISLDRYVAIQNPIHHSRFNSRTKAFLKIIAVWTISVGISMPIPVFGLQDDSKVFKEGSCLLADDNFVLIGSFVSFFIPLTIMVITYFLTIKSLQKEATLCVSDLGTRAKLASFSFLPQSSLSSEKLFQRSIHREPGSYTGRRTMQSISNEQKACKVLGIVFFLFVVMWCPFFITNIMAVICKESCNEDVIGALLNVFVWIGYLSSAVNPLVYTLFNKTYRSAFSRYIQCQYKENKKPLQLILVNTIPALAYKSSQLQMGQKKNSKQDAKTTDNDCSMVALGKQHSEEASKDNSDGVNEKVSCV

Sequence of human D3 receptor (P35462 whole entry): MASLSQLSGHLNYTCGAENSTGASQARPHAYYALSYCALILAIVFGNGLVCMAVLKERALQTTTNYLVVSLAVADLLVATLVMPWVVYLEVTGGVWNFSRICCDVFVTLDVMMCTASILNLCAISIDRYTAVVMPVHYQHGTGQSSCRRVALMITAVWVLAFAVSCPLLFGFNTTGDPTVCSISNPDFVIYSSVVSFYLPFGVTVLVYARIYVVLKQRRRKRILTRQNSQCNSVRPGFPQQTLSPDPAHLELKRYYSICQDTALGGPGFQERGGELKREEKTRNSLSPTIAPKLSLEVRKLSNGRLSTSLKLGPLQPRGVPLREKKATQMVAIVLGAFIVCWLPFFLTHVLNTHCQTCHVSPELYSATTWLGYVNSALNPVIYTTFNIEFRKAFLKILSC
T1 sequence (P14416 whole entry): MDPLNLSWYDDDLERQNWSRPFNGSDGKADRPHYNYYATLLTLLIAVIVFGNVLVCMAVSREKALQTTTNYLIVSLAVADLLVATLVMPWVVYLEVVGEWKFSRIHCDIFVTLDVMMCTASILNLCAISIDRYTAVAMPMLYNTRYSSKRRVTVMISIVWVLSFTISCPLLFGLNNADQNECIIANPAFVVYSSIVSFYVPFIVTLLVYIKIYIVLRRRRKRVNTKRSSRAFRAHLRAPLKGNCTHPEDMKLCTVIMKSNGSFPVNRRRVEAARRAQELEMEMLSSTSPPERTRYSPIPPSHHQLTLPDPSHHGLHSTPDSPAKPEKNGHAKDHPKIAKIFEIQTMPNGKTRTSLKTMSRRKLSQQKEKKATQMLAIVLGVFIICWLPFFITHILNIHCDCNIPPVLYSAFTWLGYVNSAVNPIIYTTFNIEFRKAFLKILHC
Description for human D3 receptor: HEK293 EBNA cells were transiently transfected with expression plasmids encoding for the human D2 or D3 or for the human 5-HT2A receptor, respectively. The cells were harvested 48 h post-transfection, washed three times with cold PBS and stored at −80° C. prior to use. The pellet was suspended in cold 50 mM Tris-HCl buffer comprising 10 mM EDTA (pH 7.4) and was homogenized with a Polytron (Kinematica A G, Basel, Switzerland) for 20-30 sec at 12.000 rpm. After centrifugation at 48.000×g for 30 min at 4° C., the pellet was resuspended in cold 10 mM Tris-HCl buffer comprising 0.1 mM EDTA (pH 7.4), homogenized, and centrifuged as above. This pellet was further resuspended in a smaller volume of ice cold 10 mM Tris-HCl buffer comprising 0.1 mM EDTA (pH 7.4) and homogenized with a Polytron for 20-30 sec at 12.000 rpm. The protein content of this homogenate was determined with the Bio-Rad (Bradford) Protein Assay (Biorad Laboratories GmbH, München, Germany) according to the instructions of the manufacturer using gamma globulin as the standard. This homogenate was stored at −80° C. in aliquots and thawed immediately prior to use.
Aliquots of membrane preparations were thawed at RT, resupended in assay buffer (D2, D3: 50 mM Tris-HCl, 120 mM NaCl, 5 mM MgCl2, 1 mM EDTA, 5 mM KCl, 1.5 mM CaCl2, pH=7.4; 5-HT2A: 50 mM Tris-HCl, 10 mM MgCl2, 1 mM EGTA, pH=7.4), homogenized with a Polytron for 20-30 sec at 12.000 rpm and adjusted to a final concentration of approximately 7.5 μg protein/well (D2, D3) and 15 μg protein/well (5-HT2A), respectively.
The binding affinity (Ki) of the compounds was determined using radioligand binding. Membranes were incubated in a total volume of 200 μl with a fixed concentration of radioligand (final concentration approximately 0.7 nM [^3H]-spiperone for D2, 0.5 nM [^3H]-spiperone for D3, and 1.1 nM [^3H]-ketanserin for 5-HT2A) and ten concentrations of test compound in ranging between 10 μM-0.1 nM for 1 h at RT. At the end of the incubation, the reaction mixtures were filtered on to unifilter 96-well white microplates with bonded GF/C filters (Packard BioScience, Zürich, Switzerland; preincubated for 1 h in 0.1% polyethylenimine (PEI) in assay buffer) with a Filtermate 196 harvester (Packard BioScience) and washed 3 times with cold assay buffer. The nonspecific binding was determined with equally composed reaction mixtures in the presence of 10 μM unlabelled spiperone. Per well 45 μl of Microscint 40 (Perkin Elmer, Schwerzenbach, Switzerland) was added, plates for sealed, shaken for 20 min and counted for 3 min on a Topcount Microplate Scintillation Counter (Can berra Packard S A, Zürich, Switzerland) with quenching correction.
The CPM value for each duplicate of a concentration of competing compound was averaged (y1), then the % specific binding was calculated according to the equation (((y1−non-specific)/(total binding−non-specific))×100). Graphs were plotted with the % specific binding using XLfit, a curve fitting program that iteratively plots the data using Levenberg-Marquardt algorithm. The single site competition analysis equation used was y=A+((B−A)/(1+((x/C)D))), where y is the % specific binding, A is the minimum y, B is the maximum y, C is the IC50, x is the log 10 of the concentration of the competing compound and D is the slope of the curve (the Hill Coefficient). […] The affinity constant (Ki) was calculated using the Cheng-Prusoff equation Ki=(IC50/1+([L]/Kd), where [L] is the concentration of radioligand and Kd is the dissociation constant of the radioligand at the receptor as determined by the saturation isotherm.

Turning to `CO[C@@H]1CC[C@@H](CC(=O)N[C@H]2CC[C@H](CCN3CCN(c4nccc5ccsc45)CC3)CC2)C1` (racemic) [Example 5, 2-(trans-3-Methoxy-cyclopentyl)-N-{trans-4-[2-(4-thieno[2,3-c]pyridin-7-yl-piperazin-1-yl)-ethyl]cyclohexyl}-acetamide], the pKi is 6.36 on human D2 receptor, 8.00 at human D3 receptor and 8.11 on human 5-HT2A receptor.

Compound `O=C(CC1COCCO1)N[C@H]1CC[C@H](CCN2CCN(c3nccc4ccoc34)CC2)CC1` (mixture of isomers) [Example 15, trans-2-rac-[1,4]Dioxan-2-yl-N-{4-[2-(4-furo[2,3-c]pyridin-7-yl-piperazin-1-yl)-ethyl]-cyclohexyl}-acetamide] registered a melting point of 193 °C. On human D2 receptor, this compound showed a pKi of 6.01. The compound also gave a negative logarithm of the Ki (pKi) on human D3 receptor of 8.03. This compound had a negative logarithm of the Ki (pKi) on human 5-HT2A receptor of 8.09.

The compound `O=C(CC1CCCO1)N[C@H]1CC[C@H](CCN2CCN(c3nccc4c3OCC4)CC2)CC1` (mixture of isomers) [Example 29, trans-N-(4-{2-[4-(2,3-Dihydro-furo[2,3-c]pyridin-7-yl)-piperazin-1-yl]-ethyl}-cyclohexyl)-2-rac-(tetrahydro-furan-2-yl)-acetamide] showed a melting point of 173.5 °C. Also, the pKi at human D2 receptor is 6.45. On human D3 receptor, this compound showed a pKi of 8.03. In addition, the pKi at human 5-HT2A receptor is 7.34.

`O=C(N[C@H]1CC[C@H](CCN2CCN(c3nccc4c3OCC4)CC2)CC1)C(O)C(F)(F)F` (mixture of isomers) [Example 58, trans-N-(4-{2-[4-(2,3-Dihydro-furo[2,3-c]pyridin-7-yl)-piperazin-1-yl]-ethyl}-cyclohexyl)-(RS)-3,3,3-trifluoro-2-hydroxy-propionamide] came in with a melting point of 185 °C. The negative logarithm of the Ki (pKi) at human D2 receptor was 6.15. Further, the pKi on human D3 receptor was 7.86. The compound further had a pKi at human 5-HT2A receptor of 7.48.

`O=C(N[C@H]1CC[C@H](CCN2CCN(c3nccc4c3OCC4)CC2)CC1)C1CCCO1` (mixture of isomers) [Example 82, (RS)-Tetrahydro-furan-2-carboxylic acid trans-(4-{2-[4-(2,3-dihydro-furo[2,3-c]pyridin-7-yl)-piperazin-1-yl]-ethyl}-cyclohexyl)-amide] yielded a melting point of 145 °C. Further, the pKi at human D2 receptor was 5.94. On human D3 receptor, the negative-log Ki (pKi) is 7.14. At human 5-HT2A receptor, this compound gave a pKi of 7.69.

The compound `CCC(C)C(=O)N[C@H]1CC[C@H](CCN2CCN(c3nccc4c3OCC4)CC2)CC1` (mixture of isomers) [Example 83, trans-N-(4-{2-[4-(2,3-Dihydro-furo[2,3-c]pyridin-7-yl)-piperazin-1-yl]-ethyl}-cyclohexyl)-(RS)-2-methyl-butyramide] yielded a melting point of 196.5 °C. This compound also showed a negative-log Ki (pKi) at human D2 receptor of 6.15. For the same compound, at human D3 receptor, the pKi was 7.76. On human 5-HT2A receptor, the negative-log Ki (pKi) was 7.31.

`O=C(N[C@H]1CC[C@H](CCN2CCN(c3nccc4c3OCC4)CC2)CC1)C1CCCOC1` (mixture of isomers) [Example 97, (RS)-Tetrahydro-pyran-3-carboxylic acid trans-(4-{2-[4-(2,3-dihydro-furo[2,3-c]pyridin-7-yl)-piperazin-1-yl]-ethyl}-cyclohexyl)-amide] had a melting point of 203 °C. For the same compound, the negative-log Ki (pKi) at human D2 receptor was 6.22. Besides, at human D3 receptor, the negative logarithm of the Ki (pKi) is 7.64. The negative-log Ki (pKi) on human 5-HT2A receptor is 7.56.

`COC(C)CC(=O)N[C@H]1CC[C@H](CCN2CCN(c3nccc4c3OCC4)CC2)CC1` (mixture of isomers) [Example 101, trans-N-(4-{2-[4-(2,3-Dihydro-furo[2,3-c]pyridin-7-yl)-piperazin-1-yl]-ethyl}-cyclohexyl)-(RS)-3-methoxy-butyramide] displayed a melting point of 168.5 °C. The compound further gave a pKi at human D2 receptor of 6.20. At human D3 receptor, this compound showed a pKi of 8.05. This compound had a negative-log Ki (pKi) on human 5-HT2A receptor of 7.26.

Regarding `CC(=O)N[C@H]1CC[C@H](CCN2CCN(c3nccc4ccsc34)CC2)CC1` [Example 1, N-{trans-4-[2-(4-Thieno[2,3-c]pyridin-7-yl-piperazin-1-yl)-ethyl]-cyclohexyl}-acetamide], the figures for the negative-log Ki (pKi) at human D2 receptor, at human D3 receptor and on human 5-HT2A receptor were 6.41, 8.64 and 7.92, respectively.

As to `CCC(=O)N[C@H]1CC[C@H](CCN2CCN(c3nccc4ccsc34)CC2)CC1` [Example 2, N-{trans-4-[2-(4-Thieno[2,3-c]pyridin-7-yl-piperazin-1-yl)-ethyl]-cyclohexyl}-propionamide], the results for the pKi at human D2 receptor, on human D3 receptor and on human 5-HT2A receptor were 6.64, 8.72 and 8.04, respectively.

As to `COCCC(=O)N[C@H]1CC[C@H](CCN2CCN(c3nccc4ccsc34)CC2)CC1` [Example 3, 3-Methoxy-N-{trans-4-[2-(4-thieno[2,3-c]pyridin-7-yl-piperazin-1-yl)-ethyl]-cyclohexyl}-propionamide], the pKi on human D2 receptor is 6.40; on human D3 receptor it was 8.72; at human 5-HT2A receptor it was 7.97.

Take `CO[C@H]1CC[C@H](CC(=O)N[C@H]2CC[C@H](CCN3CCN(c4nccc5ccsc45)CC3)CC2)CC1` [Example 4, 2-(trans-4-Methoxy-cyclohexyl)-N-{trans-4-[2-(4-thieno[2,3-c]pyridin-7-yl-piperazin-1-yl)-ethyl]-cyclohexyl}-acetamide]: the negative logarithm of the Ki (pKi) was 6.13 on human D2 receptor, 7.85 on human D3 receptor and 8.02 on human 5-HT2A receptor.

Take `CC(=O)N[C@H]1CC[C@H](CCN2CCN(c3nccc4c3OCC4)CC2)CC1` [Example 6, trans-N-(4-{2-[4-(2,3-Dihydro-furo[2,3-c]pyridin-7-yl)-piperazin-1-yl]-ethyl}-cyclohexyl)-acetamide]: the melting point was found to be 195 °C. The compound further had a negative-log Ki (pKi) at human D2 receptor of 6.33. The compound further had a pKi on human D3 receptor of 8.40. This compound also had a pKi on human 5-HT2A receptor of 7.24.

Consider `O=C(N[C@H]1CC[C@H](CCN2CCN(c3nccc4c3OCC4)CC2)CC1)C1CCOCC1` [Example 7, trans-Tetrahydro-pyran-4-carboxylic acid (4-{2-[4-(2,3-dihydro-furo[2,3-c]pyridin-7-yl)-piperazin-1-yl]-ethyl}-cyclohexyl)-amide], for which the melting point was found to be 236.5 °C. The same compound had a negative logarithm of the Ki (pKi) on human D2 receptor of 6.45. Besides, at human D3 receptor, the pKi is 7.88. At human 5-HT2A receptor, this compound showed a pKi of 7.81.

The compound `O=C(CC1CCOCC1)N[C@H]1CC[C@H](CCN2CCN(c3nccc4c3OCC4)CC2)CC1` [Example 8, trans-N-(4-{2-[4-(2,3-Dihydro-furo[2,3-c]pyridin-7-yl)-piperazin-1-yl]-ethyl}-cyclohexyl)-2-(tetrahydro-pyran-4-yl)-acetamide] displayed a melting point of 222.5 °C. The same compound had a pKi at human D2 receptor of 5.83. Moreover, at human D3 receptor, the pKi was 8.13. At human 5-HT2A receptor, this compound gave a negative-log Ki (pKi) of 7.31.

Compound `COCCC(=O)N[C@H]1CC[C@H](CCN2CCN(c3nccc4c3OCC4)CC2)CC1` [Example 9, trans-N-(4-{2-[4-(2,3-Dihydro-furo[2,3-c]pyridin-7-yl)-piperazin-1-yl]-ethyl}-cyclohexyl)-3-methoxy-propionamide] showed a melting point of 180 °C. The compound further had a negative-log Ki (pKi) at human D2 receptor of 6.00. On human D3 receptor, this compound had a pKi of 8.29. The same compound had a pKi at human 5-HT2A receptor of 7.17.

Compound `CC(=O)N[C@H]1CC[C@H](CCN2CCN(c3nccc4ccoc34)CC2)CC1` [Example 10, trans-N-{4-[2-(4-Furo[2,3-c]pyridin-7-yl-piperazin-1-yl)-ethyl]-cyclohexyl}-acetamide] had a melting point of 157 °C. Further, the pKi at human D2 receptor is 6.16. Further, the pKi at human D3 receptor is 8.19. The negative-log Ki (pKi) on human 5-HT2A receptor was 7.73.

As for `O=C(N[C@H]1CC[C@H](CCN2CCN(c3nccc4ccoc34)CC2)CC1)C1CCOCC1` [Example 11, Tetrahydro-pyran-4-carboxylic acid trans-{4-[2-(4-furo[2,3-c]pyridin-7-yl-piperazin-1-yl)-ethyl]-cyclohexyl}-amide], the melting point turned out to be 211 °C. The compound further had a pKi at human D2 receptor of 6.29. For the same compound, the negative-log Ki (pKi) at human D3 receptor was 7.65. Also, the pKi on human 5-HT2A receptor is 8.14.

Turning to `O=C(CC1CCOCC1)N[C@H]1CC[C@H](CCN2CCN(c3nccc4ccoc34)CC2)CC1` [Example 12, trans-N-{4-[2-(4-Furo[2,3-c]pyridin-7-yl-piperazin-1-yl)-ethyl]-cyclohexyl}-2-(tetrahydro-pyran-4-yl)-acetamide], the melting point worked out at 213 °C. This compound gave a pKi on human D2 receptor of 5.94. On human D3 receptor, this compound had a pKi of 7.83. On human 5-HT2A receptor, this compound showed a pKi of 7.66.

For the compound `COCCC(=O)N[C@H]1CC[C@H](CCN2CCN(c3nccc4ccoc34)CC2)CC1` [Example 13, trans-N-{4-[2-(4-Furo[2,3-c]pyridin-7-yl-piperazin-1-yl)-ethyl]-cyclohexyl}-3-methoxy-propionamide], the melting point came out at 146 °C. On human D2 receptor, the negative-log Ki (pKi) was 5.95. The same compound showed a pKi at human D3 receptor of 8.11. This compound also showed a negative-log Ki (pKi) on human 5-HT2A receptor of 7.68.

Take `CCC(=O)N[C@H]1CC[C@H](CCN2CCN(c3nccc4ccoc34)CC2)CC1` [Example 14, trans-N-{4-[2-(4-Furo[2,3-c]pyridin-7-yl-piperazin-1-yl)-ethyl]-cyclohexyl}-propionamide]: the melting point was found to be 187.5 °C. The pKi on human D2 receptor was 6.30. This compound gave a negative-log Ki (pKi) at human D3 receptor of 8.45. The negative logarithm of the Ki (pKi) on human 5-HT2A receptor was 8.02.

Regarding `COCC(=O)N[C@H]1CC[C@H](CCN2CCN(c3nccc4ccoc34)CC2)CC1` [Example 16, trans-N-{4-[2-(4-Furo[2,3-c]pyridin-7-yl-piperazin-1-yl)-ethyl]-cyclohexyl}-2-methoxy-acetamide], the melting point was 132 °C. The pKi at human D2 receptor is 5.91. This compound showed a pKi on human D3 receptor of 7.75. On human 5-HT2A receptor, this compound gave a pKi of 8.00.

With `O=C(Cc1ccc2c(c1)OCO2)N[C@H]1CC[C@H](CCN2CCN(c3nccc4c3OCC4)CC2)CC1` [Example 80, trans-2-Benzo[1,3]dioxol-5-yl-N-(4-{2-[4-(2,3-dihydro-furo[2,3-c]pyridin-7-yl)-piperazin-1-yl]-ethyl}-cyclohexyl)-acetamide], the melting point stood at 187 °C. The compound also gave a negative-log Ki (pKi) on human D3 receptor of 8.22. The compound further gave a negative-log Ki (pKi) on human 5-HT2A receptor of 7.31.
